The text below walks through data of publication PMC12679645, “Diversifying the triquinazine scaffold of a Janus kinase inhibitor” (RSC Medicinal Chemistry, 2025).

Read-outs that look alike come from different tables or passages of the source.

Test [1] addresses T1, JAK1 (Homo sapiens, UniProt P23458). Description: biochemical enzymatic kinase assay, % inhibition at […].
In test [2] the target is T2, JAK2 (Homo sapiens, UniProt O60674). The test can be described thus: biochemical. Also noted: Eurofins Cerep biochemical enzymatic kinase assay, per cent inhibition at a single concentration, duplicate. The text has this:
(§1) Spiro diamines containing a deazapurine ring are known JAK inhibitors.[35]

Test [3] concerns the target T3, TYK2 (Homo sapiens, UniProt P29597). Description: biochemical. Also noted: Eurofins Cerep biochemical enzymatic kinase assay, per cent inhibition at a single concentration, duplicate.
From the text: as §1

For test [4], the target named is T4, JAK3 (Homo sapiens, UniProt P52333).
T4 sequence (P52333 1-1124): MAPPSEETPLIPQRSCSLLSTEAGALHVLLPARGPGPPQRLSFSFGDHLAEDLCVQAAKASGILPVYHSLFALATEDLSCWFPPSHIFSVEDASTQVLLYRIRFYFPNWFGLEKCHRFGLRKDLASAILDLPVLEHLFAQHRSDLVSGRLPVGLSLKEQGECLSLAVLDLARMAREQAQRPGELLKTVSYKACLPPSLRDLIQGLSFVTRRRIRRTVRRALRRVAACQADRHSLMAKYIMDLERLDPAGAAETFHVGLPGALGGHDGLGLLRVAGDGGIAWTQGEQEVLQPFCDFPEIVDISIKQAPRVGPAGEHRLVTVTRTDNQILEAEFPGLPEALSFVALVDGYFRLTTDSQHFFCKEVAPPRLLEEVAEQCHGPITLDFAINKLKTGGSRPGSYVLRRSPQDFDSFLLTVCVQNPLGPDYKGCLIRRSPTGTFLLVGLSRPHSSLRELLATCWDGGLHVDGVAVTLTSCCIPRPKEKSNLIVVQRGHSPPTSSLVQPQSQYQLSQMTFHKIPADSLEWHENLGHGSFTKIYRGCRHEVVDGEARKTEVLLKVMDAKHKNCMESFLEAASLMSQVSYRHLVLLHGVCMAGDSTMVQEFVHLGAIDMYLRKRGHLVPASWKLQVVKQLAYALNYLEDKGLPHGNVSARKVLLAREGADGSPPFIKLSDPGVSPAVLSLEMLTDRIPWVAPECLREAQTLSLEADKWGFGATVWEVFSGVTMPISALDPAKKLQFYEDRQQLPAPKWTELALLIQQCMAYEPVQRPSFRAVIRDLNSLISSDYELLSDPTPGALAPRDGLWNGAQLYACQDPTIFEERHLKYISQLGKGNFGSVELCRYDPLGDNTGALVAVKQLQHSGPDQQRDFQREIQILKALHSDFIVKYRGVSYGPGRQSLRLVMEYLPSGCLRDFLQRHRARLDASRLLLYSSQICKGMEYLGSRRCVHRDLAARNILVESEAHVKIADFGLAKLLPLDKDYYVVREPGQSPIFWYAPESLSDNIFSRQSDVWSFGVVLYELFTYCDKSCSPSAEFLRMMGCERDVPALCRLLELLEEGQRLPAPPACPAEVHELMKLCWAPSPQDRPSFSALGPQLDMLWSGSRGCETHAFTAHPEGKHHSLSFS
Description: biochemical. Also noted: Eurofins Cerep biochemical enzymatic kinase assay, per cent inhibition at a single concentration, duplicate. The following applies: read-out: % of inhibition ^a / JAK3.

For test [5], the target named is T1, JAK1. Description: biochemical enzymatic kinase assay, % inhibition at […]. The source holds these as a separate data set.
The target of test [6] is T1, JAK1. The test can be described thus: biochemical. Also noted: radiometric filter-binding kinase inhibition assay (Eurofins Cerep), scintillation counting. As for the experimental part: (§2) Given the structural similarities between the expanded ring analogues 16a and 16b and the previously described inhibitor KMC420, we initially evaluated their activity at 0.1 μM against JAK1, JAK2, JAK3, and TYK2, using biochemical enzymatic assays provided by Eurofins Cerep SA.

The target in test [7] is T2, JAK2. Description: biochemical. Also noted: radiometric filter-binding kinase inhibition assay (Eurofins Cerep), scintillation counting. The protocol: as §2
The target in test [8] is T4, JAK3. Description: biochemical. Also noted: radiometric filter-binding kinase inhibition assay (Eurofins Cerep), scintillation counting. As for the experimental part: as §2
Test [9] has as its target T3, TYK2. Description: biochemical. Also noted: radiometric filter-binding kinase inhibition assay (Eurofins Cerep), scintillation counting. The protocol:
as §2

In test [10] the target is T3, TYK2. The test can be described thus: biochemical enzymatic kinase assay, % inhibition at […].
The target of test [11] is T4, JAK3. Described as above.
The target of test [12] is T1, JAK1. The test can be described thus: biochemical. Also noted: Eurofins Cerep biochemical enzymatic kinase assay, per cent inhibition at a single concentration, duplicate. The protocol:
Given the structural similarities between the expanded ring analogues 16a and 16b and the previously described inhibitor KMC420, we initially evaluated their activity at 0.1 μM against JAK1, JAK2, JAK3, and TYK2, using biochemical enzymatic assays provided by Eurofins Cerep SA. […] Spiro diamines containing a deazapurine ring are known JAK inhibitors.[35] […] However, this compound was not tested against the other JAK enzymes. Due to its similarity to our potent compound 40a, we decided to investigate its inhibitory activity against the four enzymes at a concentration of 0.1 μM. […] To investigate the binding differences between 40a and (R)-KMC420, we performed docking studies with DOCK6 using the JAK1 co-crystal structure with tofacitinib (PDB 3EYG) as receptor.

Test [13] deals with T1, JAK1. Description: biochemical enzymatic kinase assay (Eurofins Cerep), IC50 curve.

T1 sequence (P23458 whole entry): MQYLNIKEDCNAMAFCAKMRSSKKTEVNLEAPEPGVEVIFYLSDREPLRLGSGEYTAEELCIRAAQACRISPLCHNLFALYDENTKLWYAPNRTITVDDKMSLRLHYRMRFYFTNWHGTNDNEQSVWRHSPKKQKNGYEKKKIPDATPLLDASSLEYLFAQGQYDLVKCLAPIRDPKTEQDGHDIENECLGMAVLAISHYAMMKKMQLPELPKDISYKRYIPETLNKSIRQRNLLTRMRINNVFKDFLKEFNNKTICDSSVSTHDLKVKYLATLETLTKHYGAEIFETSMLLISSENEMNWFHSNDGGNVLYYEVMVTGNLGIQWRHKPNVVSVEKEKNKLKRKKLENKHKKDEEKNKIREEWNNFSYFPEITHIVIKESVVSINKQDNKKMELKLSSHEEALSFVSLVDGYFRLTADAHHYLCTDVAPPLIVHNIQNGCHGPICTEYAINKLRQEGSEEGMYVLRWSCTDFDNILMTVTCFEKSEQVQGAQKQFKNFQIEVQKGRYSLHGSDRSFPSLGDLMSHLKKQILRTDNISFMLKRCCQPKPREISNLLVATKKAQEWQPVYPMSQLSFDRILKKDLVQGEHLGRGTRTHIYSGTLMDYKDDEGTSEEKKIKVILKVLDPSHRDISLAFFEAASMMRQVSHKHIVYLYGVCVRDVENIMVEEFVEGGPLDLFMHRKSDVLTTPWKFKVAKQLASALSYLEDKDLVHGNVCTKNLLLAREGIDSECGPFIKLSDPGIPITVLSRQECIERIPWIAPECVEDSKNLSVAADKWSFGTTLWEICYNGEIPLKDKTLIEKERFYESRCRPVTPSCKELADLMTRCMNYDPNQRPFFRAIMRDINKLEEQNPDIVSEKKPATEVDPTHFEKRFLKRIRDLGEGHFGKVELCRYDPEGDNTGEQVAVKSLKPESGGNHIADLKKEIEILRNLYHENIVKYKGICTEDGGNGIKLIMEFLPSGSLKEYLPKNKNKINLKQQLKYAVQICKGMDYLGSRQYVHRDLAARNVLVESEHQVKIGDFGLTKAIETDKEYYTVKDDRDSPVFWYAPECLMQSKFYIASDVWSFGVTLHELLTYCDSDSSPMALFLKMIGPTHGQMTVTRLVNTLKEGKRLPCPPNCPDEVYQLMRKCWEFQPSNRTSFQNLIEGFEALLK
T2 sequence (O60674 whole entry): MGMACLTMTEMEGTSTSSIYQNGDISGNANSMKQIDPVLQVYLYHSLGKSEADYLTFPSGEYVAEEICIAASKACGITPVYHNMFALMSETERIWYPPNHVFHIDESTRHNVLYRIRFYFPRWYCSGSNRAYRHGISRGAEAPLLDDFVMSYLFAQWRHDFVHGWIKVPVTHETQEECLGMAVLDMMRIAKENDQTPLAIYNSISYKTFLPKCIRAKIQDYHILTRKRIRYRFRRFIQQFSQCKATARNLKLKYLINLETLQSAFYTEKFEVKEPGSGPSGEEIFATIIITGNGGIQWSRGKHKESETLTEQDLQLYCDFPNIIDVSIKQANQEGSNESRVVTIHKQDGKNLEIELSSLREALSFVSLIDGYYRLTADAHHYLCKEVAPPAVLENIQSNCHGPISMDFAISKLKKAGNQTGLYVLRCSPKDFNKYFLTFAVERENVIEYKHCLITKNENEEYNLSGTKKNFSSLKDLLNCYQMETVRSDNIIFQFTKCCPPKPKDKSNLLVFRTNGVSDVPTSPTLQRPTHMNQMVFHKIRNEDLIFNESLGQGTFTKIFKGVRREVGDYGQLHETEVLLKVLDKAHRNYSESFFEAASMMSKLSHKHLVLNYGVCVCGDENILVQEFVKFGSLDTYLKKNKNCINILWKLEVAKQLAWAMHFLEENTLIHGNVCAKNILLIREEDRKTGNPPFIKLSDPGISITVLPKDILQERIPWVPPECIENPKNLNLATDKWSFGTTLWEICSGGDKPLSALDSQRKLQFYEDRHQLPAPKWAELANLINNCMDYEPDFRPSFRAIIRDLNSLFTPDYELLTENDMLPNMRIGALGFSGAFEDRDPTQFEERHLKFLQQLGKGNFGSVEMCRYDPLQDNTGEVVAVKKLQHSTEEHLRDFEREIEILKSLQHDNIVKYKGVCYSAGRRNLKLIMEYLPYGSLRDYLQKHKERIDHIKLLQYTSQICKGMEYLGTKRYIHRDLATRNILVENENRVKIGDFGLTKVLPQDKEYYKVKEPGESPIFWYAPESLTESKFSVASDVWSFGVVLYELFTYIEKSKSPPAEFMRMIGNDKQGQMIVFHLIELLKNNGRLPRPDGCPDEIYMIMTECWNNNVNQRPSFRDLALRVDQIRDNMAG
T3 sequence (P29597 whole entry): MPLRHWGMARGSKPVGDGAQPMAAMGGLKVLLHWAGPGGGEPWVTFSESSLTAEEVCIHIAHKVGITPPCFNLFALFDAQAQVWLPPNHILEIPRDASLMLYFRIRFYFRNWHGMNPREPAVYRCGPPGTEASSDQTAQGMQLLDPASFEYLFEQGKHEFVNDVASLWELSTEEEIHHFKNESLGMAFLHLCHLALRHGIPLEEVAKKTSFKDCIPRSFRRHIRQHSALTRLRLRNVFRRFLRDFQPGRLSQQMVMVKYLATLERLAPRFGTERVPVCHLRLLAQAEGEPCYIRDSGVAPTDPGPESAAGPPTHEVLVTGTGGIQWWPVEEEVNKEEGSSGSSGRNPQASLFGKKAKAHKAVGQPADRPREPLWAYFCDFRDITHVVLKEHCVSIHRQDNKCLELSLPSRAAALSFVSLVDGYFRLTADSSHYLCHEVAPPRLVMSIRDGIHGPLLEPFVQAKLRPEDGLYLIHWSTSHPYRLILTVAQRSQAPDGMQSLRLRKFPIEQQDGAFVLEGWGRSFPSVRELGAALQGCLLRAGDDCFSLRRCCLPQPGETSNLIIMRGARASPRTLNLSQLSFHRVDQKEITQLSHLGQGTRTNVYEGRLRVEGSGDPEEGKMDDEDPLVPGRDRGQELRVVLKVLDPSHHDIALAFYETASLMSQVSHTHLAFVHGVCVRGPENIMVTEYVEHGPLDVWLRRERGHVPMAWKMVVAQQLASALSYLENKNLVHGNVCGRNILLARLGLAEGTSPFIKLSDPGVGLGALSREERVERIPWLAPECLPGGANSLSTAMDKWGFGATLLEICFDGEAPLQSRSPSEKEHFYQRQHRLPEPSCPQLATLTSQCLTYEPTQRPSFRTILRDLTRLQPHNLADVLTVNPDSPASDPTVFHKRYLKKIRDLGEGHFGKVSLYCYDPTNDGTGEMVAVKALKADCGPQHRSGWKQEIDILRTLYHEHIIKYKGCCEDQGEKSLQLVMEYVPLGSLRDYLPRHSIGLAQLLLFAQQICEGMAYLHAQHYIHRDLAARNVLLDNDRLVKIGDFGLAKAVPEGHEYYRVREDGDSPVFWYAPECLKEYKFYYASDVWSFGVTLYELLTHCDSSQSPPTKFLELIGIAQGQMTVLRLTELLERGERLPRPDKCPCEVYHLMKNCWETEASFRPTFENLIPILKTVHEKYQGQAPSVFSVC

As to `C[C@]12CCN(c3ncnc4[nH]ccc34)[C@H]1CC[C@H]2NC#N` (racemic) [34c], the inhibition at 1 µM was determined as 89 ± 2% in test [1], 45 ± 8% in test [2], 53 ± 5% in [3] and 43 ± 3% in test [4].

Regarding `CCS(=O)(=O)N[C@@H]1CC[C@@H]2N(c3ncnc4[nH]ccc34)CC[C@@]21C` (racemic) [34d], the inhibition at 1 µM in [1] was 88 ± 1%; in test [2] it was 61 ± 1%; in [3], 56 ± 1%; in test [4] it was 45 ± 6%.

Consider `C=CC(=O)N[C@H]1CC[C@@H]2N(c3ncnc4[nH]ccc34)CC[C@]12C` (racemic) [40b], for which the inhibition at 0.1 µM in test [5] is 59 ± 2%; in test [2] it was 8 ± 1%; in test [3] it was 16 ± 2%; in test [4] it was 4 ± 1%. Further, the inhibition at 1 µM was 93% in [6], 52% in test [7], 55% in test [8] and 70% in test [9]. Also, the inhibition at 10 µM in test [6] was 100%; in test [7], 96%; in [8] it was 99%; in test [9] it was 100%.

Take `C[C@]12CCN(c3ncnc4[nH]ccc34)[C@H]1CC[C@@H]2NC#N` (racemic) [40c]: the inhibition at 0.1 µM is 70 ± 2% in test [5], 61% in test [10], 58 ± 1% in [11] and 18 ± 6% in [2]. Further, the inhibition at 1 µM in test [6] came out at 95%; in [7], 58%; in test [8], 96%; in [9], 92%. The inhibition at 10 µM was 100% in [6], 85% in test [7], 79% in [8] and 91% in test [9].

On to `N#CN1CCC2(CCN(c3ncnc4[nH]ccc34)C2)C1` (racemic) [43c], for which the inhibition at 1 µM in [1] was found to be 93 ± 1%; in [2] it was 59 ± 4%; in [3] it was 63 ± 2%; in test [4] it was 26 ± 1%.

In the case of `CC12CCN(c3ncnc4[nH]ccc34)C1CCC2NC(=O)CC#N` (stereo not shown) [34a], the inhibition at 1 µM in test [12] came to 85 ± 1%; in [2], 41 ± 5%; in [3], 41 ± 6%; in [4], 43 ± 5%.

On to `C=CC(=O)NC1CCC2N(c3ncnc4[nH]ccc34)CCC12C` (stereo not shown) [34b], for which the inhibition at 1 µM in [12] came out at 73 ± 1%; in [2], 27 ± 3%; in test [3], 23 ± 5%; in [4], 38 ± 1%.

As to `CC12CCN(C(=O)CC#N)C1CCC2Nc1ncnc2[nH]ccc12` (stereo not shown) [36a], the inhibition at 10 µM was 94% in test [12], 60% in [2] and 75 ± 2% in test [3].

As to `C=CC(=O)N1CCC2(C)C(Nc3ncnc4[nH]ccc34)CCC12` (stereo not shown) [36b], the inhibition at 10 µM in test [12] was determined as 84 ± 2%; in test [2] it was 47 ± 2%; in [3], 52%; in [4] it was 63 ± 1%.

On to `CC12CCN(C#N)C1CCC2Nc1ncnc2[nH]ccc12` (stereo not shown) [36c], for which the inhibition at 10 µM in test [12] was found to be 92%; in test [2], 80 ± 3%; in test [3], 74 ± 3%.

Take `CCS(=O)(=O)N1CCC2(C)C(Nc3ncnc4[nH]ccc34)CCC12` (stereo not shown) [36d]: the inhibition at 10 µM in test [12] came out at 86 ± 1%; in test [2] it was 51 ± 3%; in test [3] it was 67 ± 1%; in [4], 42 ± 3%; in test [6], 99%; in test [7], 98%. Also, the results for the inhibition at 10 µM in test [8] and in test [9] were 96% and 97%, respectively. Also, the inhibition at 1 µM in test [6] was determined as 45%; in test [7], 11%; in test [8], 44%; in [9], 53%.

In the case of `CC12CCN(c3ncnc4[nH]ccc34)C1CCC2NC(=O)CC#N` (stereo not shown) [40a], the inhibition at 0.1 µM is 80 ± 3% in [12], 3 ± 1% in [2], 29 ± 3% in test [3] and 27 ± 1% in test [4]. The inhibition at 1 µM in test [6] came to 99%; in [7] it was 72%; in test [8], 79%; in test [9] it was 82%. Further, the inhibition at 10 µM in [6] is 99%; in test [7], 91%; in test [8] it was 89%; in test [9] it was 95%.

For `CCS(=O)(=O)NC1CCC2N(c3ncnc4[nH]ccc34)CCC12C` (stereo not shown) [40d], the inhibition at 0.1 µM in test [12] was 28 ± 6%; in [2], 1 ± 8%; in test [3], 11 ± 12%; in [4] it was -10 ± 11%. For the same compound, the inhibition at 1 µM in test [6] turned out to be 76%; in [7], 38%; in [8] it was 11%.

Regarding `CCS(=O)(=O)N1CCC2(CCN(c3ncnc4[nH]ccc34)C2)C1` (stereo not shown) [43d], the inhibition at 1 µM was 87 ± 1% in test [12], 54 ± 6% in [2], 34 ± 8% in test [3] and 22 ± 1% in [4].

In the case of `C[C@]12CCN(c3ncnc4[nH]ccc34)[C@H]1CC[C@@H]2NC(=O)CC#N` [(R,S,S)-40a], half-maximal inhibition in test [13] (IC50) required 69 nM.

With `C[C@@]12CCN(c3ncnc4[nH]ccc34)[C@@H]1CC[C@H]2NC(=O)CC#N` [(S,R,R)-40a], the IC50 (usually the concentration that inhibits the measured activity by half) in [13] turned out to be 18 nM.
